Measured values from patent publication US8778304B2, “TSPO-targeting compounds and uses thereof” (The Johns Hopkins University, priority 2010, dated 2014).

Experiments:
TSPO [1] = target: T1, TSPO (Homo sapiens, UniProt P30536); details: cited from earlier work
TSPO [2] = details: cited from earlier work
TSPO [3] = target: T1, TSPO; details: first human study; cited from earlier work
TSPO [4] = target: T2, TSPO (Mus musculus, UniProt P50637); details: Sandhoff mice at 4 months of age; cited from earlier work
TSPO [5] = target: T2, TSPO; assay: [125I]-IodoDPA713 microSPECT/CT imaging of heart in coxsackievirus-induced myocarditis mice; type: in vivo
Procedure: (§1) An X-SPECT small-animal SPECT/CT system (Gamma Medica-Ideas) was used for image acquisition. Each mouse was anesthetized with isofluorane prior to imaging. About 1-2 mCi of [^125I]-IodoDPA713 was injected into each mouse via intravenous injection, and images were acquired immediately after injection. The SPECT projection data were acquired using 2 low-energy, high-resolution parallel-hole collimators with a radius of rotation of 4.65 cm (spatial resolution, 1.6 mm). The tomographic data were acquired in 64 projections over 360° at 20 s per projection. After tomography, CT was acquired in 512 projections to allow anatomic coregistration. Data were reconstructed using the ordered subsets-expectation maximization algorithm and analyzed using AMIDE software (free software provided by SourceForge). Data was analyzed using Analysis software, and time activity curve of the [^125I]-IodoDPA713 uptake was generated for each mouse. Three mice per treatment were scanned for the study.

TSPO [6] = target: T2, TSPO; assay: [125I]-IodoDPA713 microSPECT/CT dynamic in vivo imaging of TSPO in Sandhoff disease mice; set-up: Fresh-frozen brains were sectioned (20 μm) on a freezing cryostat in the horizontal plane; from tissue; host or cells: mouse brain sections (fresh-frozen for A4, PLP-fixed for A5)
Procedure: as §1, with “genotype” for “treatment”, “study. For the blocking study, non-radioactive IodoDPA713 (20 μM) was intravenously co-injected with [^125I]-IodoDPA713, and images were acquired immediately after [^125I] injection.” for “study.”

TSPO [7] = target: T2, TSPO; assay: Quantitative receptor autoradiography with [125I]-IodoDPA713 on Sandhoff mouse brain sections; type: binding; set-up: Fresh-frozen brains were sectioned (20 μm) on a freezing cryostat in the horizontal plane; from tissue; host or cells: mouse brain sections (fresh-frozen for A4, PLP-fixed for A5)
Procedure: Fresh-frozen brains were sectioned (20 μm) on a freezing cryostat in the horizontal plane. Brain sections were thaw-mounted onto poly-L-lysine-coated slides (Sigma-Aldrich, St. Louis, Mo.) and stored at −20° C. until used. [^125I]-IodoDPA713 autoradiography to measure TSPO levels were performed on adjacent brain sections using the same procedures. Slides were thawed and dried at 37° C. for 30 min and prewashed in 50 mM Tris-HCl buffer (pH 7.4) for 5 min at room temperature. Sections were then incubated in 0.5 nM [^125I]-IodoDPA713 in buffer for 30 min at room temperature. For non-specific binding, adjacent sections were incubated in the presence of […] racemic PK11195. The reaction was terminated by two 3-min washes in cold buffer (4° C.) and two dips in cold deionized water (4° C.). Sections incubated with [^125I]-IodoDPA713 were apposed to Kodak Bio-Max MR films with [^125I]-Microscales (GE Healthcare, Piscataway, N.J.) for 1 h. Images were acquired and quantified using the MCID software (InterFocus Imaging Ltd, Cambridge, England).

TSPO [8] = target: T2, TSPO; assay: SPECT-CT imaging of LPS-induced lung inflammation in mice; type: in vivo; details: for lung signal to background ratio: 1 h postinjection, lungs vs muscle
Procedure: Eight- to 10-week-old female CD-1 mice (Charles River Labs) were imaged. Mice were anesthetized by brief isoflurane sedation. While anesthetized, intranasal instillation was conducted by placing 10 μg/60 μL (167 μg/mL) of lipopolysaccharide (LPS) onto the nares (Szarka et al., “A murine model of pulmonary damage induced by lipopolysaccharide via intranasal instillation,” J. Immunol. Methods, vol. 202, pp. 49-57, 1997). The 60 μL sample was applied onto the nares as three 20 μL drops. Phosphate-buffered saline (PBS) was administered in a similar fashion and used as the control.
For single photon emission computed tomography-computed tomography (SPECT-CT) imaging 18.5 MBq (500 μCi) of [^125I]1 was injected via the tail vein into the LPS and PBS treated mice and imaged 1 h later, which corresponded to 24 h after the administration of LPS or PBS. That time point was chosen since it represents the time at which there is maximum inflammation in the lungs, as determined by a time course study with histologic correlation (data not shown). Each mouse was anesthetized with isoflurane and maintained under 1-2% isoflurane in oxygen. The mouse was positioned on the X-SPECT (Gamma Medica, Northridge, Calif.) gantry and was scanned using two opposing low energy pinhole collimators (Gamma Medica) rotating through 360° in 3° increments for 20 s per increment. Images were reconstructed using LumaGem software that accompanies the X-SPECT. Immediately following SPECT acquisition, the mice were scanned by CT over a 3-cm field-of-view using a 600-μA, 50 kV beam. […] Data were reconstructed using the ordered subsets-expectation maximization (OS-EM) algorithm. The signal to background ratio was calculated from the images by drawing regions of interest over the lungs (signal) and muscle, (background).

TSPO [9] = target: T3, TSPO (Rattus norvegicus, UniProt P16257); assay: In vitro autoradiography with [125I]1 on rat brain sections (neurotoxicant model of brain inflammation); type: binding
T3 construct: Fresh-frozen brains were sectioned (20 μm) on a freezing cryostat in the horizontal plane; from tissue; host or cells: rat brain sections (control and neurotoxicant-treated)
Procedure: Fresh-frozen brains were sectioned (20 μm) on a freezing cryostat in the horizontal plane. Brain sections were thaw-mounted onto poly-L-lysine-coated slides (Sigma) and stored at −20° C. until used. Autoradiography using [^125I]IodoDPA-713 ([^125I]1) was performed on adjacent brain sections using the following procedures. Slides were thawed and dried at 37° C. for 30 min and prewashed in 50 mM Tris-HCl buffer (pH 7.4) for 5 min at room temperature. Sections were then incubated in 1.4 nM [^125I]1 in 50 mM Tris-HCl buffer for 30 min at room temperature. For non-specific binding, adjacent sections were incubated in the presence of 10 μM racemic PK11195. The reaction was terminated by two 3 min washes in cold buffer (4° C.) and two dips in cold deionized water (4° C.). Sections were air-dried and apposed to Kodak Bio-Max MR film for 1 h. Images were acquired using the MCID image analysis software (InterFocus Imaging Ltd., Cambridge, England).
The first study involved a model of brain inflammation in which rats were exposed to a seizure-inducing neurotoxicant (FIG. 2). Note that higher levels of [^125I]1 were present in the neurotoxicant-treated rat brain (FIG. 2B) than in control brain (FIG. 2A). Exposure of the tissue specimens to [^125I]1 to generate these images required only 60 min, as opposed to 4-5 weeks often needed for tritium-labeled compounds when exposing the samples to film.

T1 sequence (P30536 whole entry): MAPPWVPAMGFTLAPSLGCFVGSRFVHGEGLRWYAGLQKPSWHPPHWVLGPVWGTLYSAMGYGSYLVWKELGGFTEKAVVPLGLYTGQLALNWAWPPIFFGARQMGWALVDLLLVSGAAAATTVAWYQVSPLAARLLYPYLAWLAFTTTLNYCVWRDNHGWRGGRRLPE

For CCN(CC)C(=O)Cc1c(-c2ccc(OC)cc2)nn2c(C)cc(C)nc12 [DPA-713, N,N-diethyl-2-[2-(4-methoxy-phenyl)-5,7-dimethyl-pyrazolo[1,5-a]pyrimidin-3-yl]-acetamide], the “affinity for TSPO relative to PK11195” value (TSPO [1]) is listed as “nearly twice”.
For CCN(CC)C(=O)Cc1c(-c2ccc(OC)cc2)nn2c(C)cc(C)nc12 [[^11C]DPA-713], the “brain uptake relative to [11C]-PK11195” value (TSPO [2]; PET imaging) is listed as “higher brain uptake”, the “signal-to-noise ratios relative to [11C]PK11195” value (TSPO [2]; rodent model of brain injury) is listed as “higher signal-to-noise ratios” and the “binding potential relative to [11C]PK11195” value (TSPO [3]) is listed as “higher binding potential”.
For CCC(C)N(C)C(=O)c1cc2ccccc2c(-c2ccccc2Cl)n1 (centres unmarked) [[^11C]PK11195], the brain uptake (TSPO [2]; in vivo) is given as “poor brain uptake”, the non-specific binding (TSPO [2]; in vivo) is given as “significant non-specific binding” and the “PET uptake in Sandhoff mice compared to wildtype” value (TSPO [4]) is given as “higher”.
In the case of CCN(CC)C(=O)Cc1c(-c2ccc(OC)c([125I])c2)nn2c(C)cc(C)nc12 [[^125I]1, N,N-Diethyl-2-[2-(3-[^125I]-iodo-4-methoxyphenyl)-5,7-dimethylpyrazolo[1,5-a]pyrimidin-3-yl]acetamide], the “organ specificity of increased uptake (lungs and liver also analyzed)” value (TSPO [5]; coxsackievirus-injected mice) is reported as “heart-specific”, the “tracer uptake (SUV) in heart, coxsackievirus-injected versus PBS-injected control mice” value (TSPO [5]; n=3, p<0.05, FIG. 15) is reported as “statistically significant increase” and the “tracer uptake (SUV) in thalamus, Sandhoff versus wildtype” value (TSPO [6]; 2 months, p=0.0484) is reported as “statistically significant increase”. The “tracer uptake (SUV) in brainstem, Sandhoff versus wildtype” value (TSPO [6]; 3 months, p=0.0172) was “statistically significant increase”, the “tracer uptake with blocker versus without blocker” value (TSPO [6]; Sandhoff mouse, co-injected nonradioactive IodoDPA713 (20 μM)) was “reduced uptake” and the “tracer uptake (SUV) in thalamus, cerebellum and brainstem, Sandhoff versus wildtype” value (TSPO [6]; quantitative analysis, FIG. 8K) was “trend of increased uptake”. The “tracer uptake in thalamus, Sandhoff versus wildtype (time-activity curve)” value (TSPO [6]; thalamus, FIG. 8J) was “consistently had higher uptake”, the “binding in cerebellum, Sandhoff versus wildtype” value (TSPO [7]; 2 months, did not reach statistical significance, p=0.098) was “modest increase” and the “binding to TSPO in thalamus, Sandhoff versus wildtype” value (TSPO [7]; 2 months, p=0.0007) was “significant increases”. For the same molecule, the “binding to TSPO in brainstem, Sandhoff versus wildtype” value (TSPO [7]; 2 months, p=0.0011) was “significant increases”, the “binding in hippocampus, Sandhoff versus wildtype” value (TSPO [7]; 2 months, p=0.63) was “no significant increase” and the “binding in cerebral cortex, Sandhoff versus wildtype” value (TSPO [7]; 2 months, p=0.98) was “no significant increase”. For the same molecule, the “binding in thalamus, Sandhoff versus wildtype” value (TSPO [7]; 3 months, p<0.0001) was “increased TSPO binding”, the “binding in brainstem, Sandhoff versus wildtype” value (TSPO [7]; 3 months, p=0.0016) was “increased TSPO binding” and the “binding in cerebral cortex, Sandhoff versus wildtype” value (TSPO [7]; 3 months, p=0.0037) was “increased binding”. The “binding in cerebellum, Sandhoff versus wildtype” value (TSPO [7]; 3 months, p=0.0151) was “increased binding”, the “binding in hippocampus, Sandhoff versus wildtype” value (TSPO [7]; 3 months, p=0.5912) was “no increased TSPO binding” and the “lung signal to background ratio” value (TSPO [8]; LPS treated mouse) was 21.2. For the same molecule, the “uptake in inflamed mouse lungs relative to normal lungs” value (TSPO [8]; SPECT-CT, FIG. 3) was 1.5 fold, the “lung signal to background ratio” value (TSPO [8]; control mouse) was 14.6 and the “level of [125I]1 binding in neurotoxicant-treated rat brain versus control brain” value (TSPO [9]; 1.4 nM tracer, horizontal brain sections, FIG. 2A/2B) was “higher levels”. The “blocking of [125I]1 uptake by PK11195 (specificity for TSPO)” value (TSPO [9]; neurotoxicant-treated rat, 10 μM PK11195, FIG. 2C) was “almost completely blocked”.
